From PubChem BioAssay (NCI)
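96-well plates; 48 h exposure; 5 concentrations. Endpoints by linear interpolation between flanking doses. Not reached: highest tested concentration assigned. GI50: concentration for 50% inhibition of growth. TGI: total growth inhibition.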

Legend:
Test in all cases: NCI anticancer screen, dose series, 48 h
[1] = system: NCI-H522 lung
[2] = system: OVCAR-5 ovarian
[3] = system: HOP-92 NSCLC
[4] = system: A549 NSCLC
[5] = system: LOX IMVI melanoma
[6] = system: NCI-H226 lung
[7] = system: CCRF-CEM leukemia
[8] = system: RXF 393 renal
[9] = system: SK-MEL-5 melanoma
[10] = system: HS 578T breast

Structure (SMILES)	TGI [1]	TGI [2]	TGI [3]	TGI [4]	TGI [5]	TGI [6]	TGI [7]	TGI [8]	TGI [9]	GI50 [7]	GI50 [1]	GI50 [2]	GI50 [4]	GI50 [10]	TGI [10]	GI50 [9]	GI50 [6]	GI50 [8]	GI50 [5]	GI50 [3]
O=[N+]([O-])c1ccc(-c2ccc(C3=Nn4c(CNc5ccccc5Cl)nnc4SC3)o2)cc1	> 100 µM	> 100 µM	> 100 µM	> 100 µM	> 100 µM	> 100 µM	–	–	–	–	–	–	–	–	–	–	–	–	–	–
CC(=O)OCC(=O)[C@@]1(O)CC[C@H]2[C@@H]3C[C@H](C)C4=CC(=O)C=C[C@]4(C)[C@@]3(F)[C@@H](O)C[C@@]21C	> 100 µM	> 100 µM	> 100 µM	> 100 µM	> 100 µM	> 100 µM	> 100 µM	> 100 µM	> 100 µM	–	–	–	–	–	–	–	–	–	–	–
O=C1N[C@@H]2CCCC[C@@H]2C12CCCCC2	–	> 100 µM	–	> 100 µM	> 100 µM	> 100 µM	> 100 µM	> 100 µM	–	–	–	–	–	–	–	–	–	–	–	–
CCOC(=O)c1ccc(N=Nc2ccc(N(CCC#N)CCC#N)cc2C)cc1	> 100 µM	> 100 µM	–	> 100 µM	> 100 µM	> 100 µM	> 100 µM	> 100 µM	> 100 µM	–	–	–	–	–	–	–	–	–	–	–
OC(c1ccccc1Br)(c1ccccc1Br)C(F)(F)F	26.1 µM	70 µM	–	> 100 µM	40.2 µM	26.5 µM	–	34.5 µM	–	–	–	–	–	–	–	–	–	–	–	–
O=C(CCCC(=O)Nc1ccc(Cl)cc1Cl)CC(=O)c1ccc2ccccc2c1	–	> 100 µM	> 100 µM	> 100 µM	> 100 µM	> 100 µM	> 100 µM	> 100 µM	> 100 µM	–	–	–	–	–	–	–	–	–	–	–
c1ccc(C(c2ccccc2)c2ccccn2)cc1	–	> 100 µM	–	> 100 µM	> 100 µM	> 100 µM	> 100 µM	–	> 100 µM	–	–	–	–	–	–	–	–	–	–	–
COc1ccc2nc(NC(=O)C(=O)CC(=O)c3ccc([N+](=O)[O-])cc3)sc2c1	> 100 µM	> 100 µM	> 100 µM	> 100 µM	–	> 100 µM	> 100 µM	–	> 100 µM	–	–	–	–	–	–	–	–	–	–	–
CCOC(=O)C1=C(NC)OCC1=O	> 100 µM	> 100 µM	> 100 µM	> 100 µM	> 100 µM	> 100 µM	> 100 µM	> 100 µM	> 100 µM	–	–	–	–	–	–	–	–	–	–	–
O=C1NC(=O)C2C(=O)NC(=O)C1C2Cc1ccco1 (stereo not given)	> 100 µM	> 100 µM	> 100 µM	> 100 µM	> 100 µM	> 100 µM	> 100 µM	> 100 µM	> 100 µM	–	–	–	–	–	–	–	–	–	–	–
COC(=O)C1=C(C(=O)OC)C2(c3ccccc3)OC1(c1ccccc1)c1cc3ccccc3cc12	–	3.53 µM	2.44 µM	5.32 µM	2.71 µM	–	4.55 µM	2.57 µM	3.69 µM	–	–	–	–	–	–	–	–	–	–	–
NC1=NC(Cn2nc(-c3ccccc3)c3ccccc3c2=O)=NNC(=O)N1	> 100 µM	> 100 µM	> 100 µM	> 100 µM	–	> 100 µM	> 100 µM	–	> 100 µM	–	–	–	–	–	–	–	–	–	–	–
CC(=O)Nc1ccc(C2CC(c3ccc([N+](=O)[O-])cc3)=Nc3ccccc3S2=O)cc1 (stereo not given)	34.7 µM	> 100 µM	–	> 100 µM	31.8 µM	64.5 µM	31.8 µM	32.3 µM	48.4 µM	–	–	–	–	–	–	–	–	–	–	–
O=C(COc1ccc(/C=C2\Oc3ccccc3C2=O)cc1)Nc1nc2ccccc2s1	0.487 µM	> 100 µM	–	> 72.7 µM	–	> 95.5 µM	0.332 µM	–	> 100 µM	0.17 µM	0.207 µM	39.4 µM	4.96 µM	18.1 µM	96.4 µM	29.7 µM	23.3 µM	–	–	–
Nc1nc(=S)c2ncn(C3OC(COP(=O)(O)O)C(O)C3O)c2[nH]1 (stereo not given)	9.52 µM	> 100 µM	–	> 100 µM	14.2 µM	> 100 µM	> 100 µM	9.75 µM	11.7 µM	0.406 µM	2.11 µM	0.752 µM	4.69 µM	6.36 µM	> 100 µM	3.25 µM	9.9 µM	1.43 µM	0.322 µM	–
COc1cc(/C=C2\NC(=O)C(Cc3cc(OC)c(OC)c(C)c3OC)N(C(C)=O)C2=O)c(OC)c(C)c1OC (stereo not given)	79.2 µM	> 100 µM	> 100 µM	> 100 µM	> 100 µM	> 100 µM	> 100 µM	> 100 µM	> 100 µM	–	–	–	–	–	–	–	–	–	–	–
C(=Nc1nc(SCc2ccccc2)nc2[nH]ncc12)c1cccs1	> 100 µM	> 100 µM	50 µM	> 100 µM	> 100 µM	> 100 µM	> 100 µM	> 100 µM	19.8 µM	37.2 µM	59.2 µM	> 100 µM	60 µM	–	–	2.77 µM	45.7 µM	47.1 µM	48.6 µM	10.7 µM
